Results from ChEMBL document CHEMBL1155585, “Cypellocarpins A-C, phenol glycosides esterified with oleuropeic acid, from Eucalyptus cypellocarpa” (J Nat Prod, 2000).

Assays:
[1] = species on record: Mus musculus; experiment: Antitumor activity against (+/-)-(E)-4-methyl-2-[(E)-hydroxyimino]-6-methoxy-5-nitro-3-hexenamide/TPA-induced carcinogenesis in mouse assessed as reduction in number of tumor bearing mouse at 50 molar ratio/TPA after 10 weeks relative to control; assay type: functional; parameters: scale not given: the % may be the effect or the level left
[2] = Cytotoxicity against human Raji cells assessed as cell viability at 1000 molar ratio/TPA; assay type: cell-based; conditions: read-out: Activity
[3] = species on record: Mus musculus; experiment: Antitumor activity against (+/-)-(E)-4-methyl-2-[(E)-hydroxyimino]-6-methoxy-5-nitro-3-hexenamide/TPA-induced carcinogenesis in mouse assessed as reduction in number of tumor bearing mouse at 50 molar ratio/TPA after 20 weeks relative to control; assay type: functional; parameters: scale not given: the % may be the effect or the level left

SMILES: Cc1c(O[C@@H]2O[C@H](CO)[C@@H](O)[C@H](O)[C@H]2O)c(C=O)c(O)c2c1OC(C)(C)C=C2
- Activity [1]: 30%
- viability at 1000 molar ratio/TPA [2]: 60%

SMILES: Cc1cc(=O)c2c(O)cc(O[C@@H]3O[C@H](COC(=O)C4=CC[C@H](C(C)(C)O)CC4)[C@@H](O)[C@H](O)[C@H]3O)cc2o1 [CYPELLOCARPA C]
- Activity [1]: 30%
- viability at 1000 molar ratio/TPA [2]: 70%

SMILES: CC(C)(O)[C@H]1CC=C(C(=O)OC[C@H]2O[C@@H](Oc3cc(C(=O)O)cc(O)c3O)[C@H](O)[C@@H](O)[C@@H]2O)CC1 [CYPELLOCARPIN A]
- viability at 1000 molar ratio/TPA [2]: 70%

SMILES: CC1(O)CC(=O)c2c(O)cc(O[C@@H]3O[C@H](COC(=O)C4=CC[C@H](C(C)(C)O)CC4)[C@@H](O)[C@H](O)[C@H]3O)cc2O1 (stereo partly drawn) [CYPELLOCARPIN B]
- Activity [3]: 58%
- Activity [1]: 30%
- viability at 1000 molar ratio/TPA [2]: 70%
